Laboratory results published in publication PMC11898488, “A2A Adenosine Receptor Antagonists and Their Efficacy in Rat Models of Parkinson’s Disease” (Cells, 2025).
“Also recorded” adds a separate entry of the source. Where two headings read alike, the source gives them in different places.

Experiments:
[1] = tested on: catalepsy induced by haloperidol; test: Haloperidol-induced catalepsy, vertical grid test; format: in vivo, rat; conditions: rats; for Effect on catalepsy induced by haloperidol: 5 mg/kg i.p. given 90 min after haloperidol 0.2 mg/kg s.c., 90 min testing period; for Duration of anticataleptic effect: 5 mg/kg i.p., haloperidol 0.2 mg/kg s.c., time after drug administration
Experimental: Male Sprague Dawley rats (200–300 g, Charles River, Calco, Italy) were housed in groups of 4–6 in standard polycarbonate cages with sawdust bedding and maintained on a 12 h light/dark cycle (lights on at 8:00 am). Food and water were freely available. All experiments were conducted in accordance with the guidelines for animal experimentation of the EU directives (2010/63/EU; L.276; 22 September 2010) and approved by the Committee on Animal Experimentation (CESA; protocol code 29456, 21 March 2012) of the University of Cagliari. Experiments were designed to minimize animal discomfort and to reduce the number of animals used.
Catalepsy was estimated using the vertical grid test. The test was carried out by placing a rat with the four paws on a wire grid (43–25 cm) at an angle of about 70° in respect to the bench surface. Catalepsy was determined by measuring the time in which the rat maintained a given position. The test was terminated when the rat moved one paw or when 90 s had elapsed from the placement of the rat on the grid. Catalepsy assessments were repeated every 10–15 min intervals. […] A2AAR antagonists were injected 90 min after haloperidol administration to evaluate their effects on deeply cataleptic rats. […]
For catalepsy evaluation, the mean and S.E.M. of the seconds of immobility during each test section were calculated. Significant differences between groups were evaluated by one-way analysis of variance (ANOVA) followed by a Newman–Keuls post hoc test.
After 40 min of haloperidol administration (0.2 mg/kg s.c.), a significant catalepsy was induced in rats, which reached its maximum at 60–70 min [18, 24]. Therefore, the administration of the A2AAR antagonists was made 90 min after haloperidol to evaluate their effects on deeply cataleptic rats.

[2] = molecular target: T1, human A3AR (Homo sapiens, UniProt P0DMS8); conditions: [3H]-NECA displacement, human A3AR in CHO cells; geometric mean with 95% confidence limits; read-out: Ki A3; cited from earlier work
T1 construct: expressed in transfected cells; host or cells: CHO cells, crude membrane fractions
T1 sequence (P0DMS8 1-318): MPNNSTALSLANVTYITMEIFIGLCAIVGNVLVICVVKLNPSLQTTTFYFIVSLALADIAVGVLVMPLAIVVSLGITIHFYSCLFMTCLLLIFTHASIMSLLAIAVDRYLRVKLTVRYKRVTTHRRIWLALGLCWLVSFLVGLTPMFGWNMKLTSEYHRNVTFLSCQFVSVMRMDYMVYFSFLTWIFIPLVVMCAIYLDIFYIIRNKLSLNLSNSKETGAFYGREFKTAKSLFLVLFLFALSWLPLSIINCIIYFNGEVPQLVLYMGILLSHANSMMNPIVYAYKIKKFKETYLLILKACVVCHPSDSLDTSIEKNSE

[3] = molecular target: T2, human A2BAR (Homo sapiens, UniProt P29275); conditions: inhibition of NECA-stimulated AC activity, CHO cells expressing human A2BAR; geometric mean with 95% confidence limits; read-out: IC50 A2B; cited from earlier work
T2 construct: expressed in transfected cells; host or cells: CHO cells, crude membrane fractions
T2 sequence (P29275 1-332): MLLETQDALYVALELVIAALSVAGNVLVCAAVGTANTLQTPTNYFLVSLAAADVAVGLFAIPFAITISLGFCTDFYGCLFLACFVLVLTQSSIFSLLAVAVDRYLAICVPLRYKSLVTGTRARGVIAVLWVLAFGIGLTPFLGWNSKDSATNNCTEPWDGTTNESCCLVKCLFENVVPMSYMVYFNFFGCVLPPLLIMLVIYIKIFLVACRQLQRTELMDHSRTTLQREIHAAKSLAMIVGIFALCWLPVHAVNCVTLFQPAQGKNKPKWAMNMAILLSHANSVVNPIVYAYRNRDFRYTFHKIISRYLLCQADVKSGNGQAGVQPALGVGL

[4] = molecular target: T1, human A3AR; test: Radioligand binding, displacement of [3H]NECA at human A3AR in CHO cells; conditions: [3H]-NECA displacement, geometric mean with 95% confidence limits, read-out: Ki A3
Experimental: (§1) The radioligand binding experiments were carried out exactly as described previously. For A1AR binding, 1 nM [^3H]CCPA was used as a radioligand, whereas 30 and 10 nM [^3H]NECA were used for A2A and A3 ARs, respectively. Nonspecific binding was determined in the presence of 1 mM theophylline (A1AR) or […] R-PIA (A2A and A3 ARs). Ki values were calculated from competition curves by nonlinear curve fitting with the program SCTFIT [31].
(§2) CHO cells stably transfected with human ARs were grown adherently and maintained in Dulbecco’s Modified Eagles Medium with nutrient mixture F12 (DMEM/F12) without nucleosides, containing 10% fetal calf serum, penicillin (100 U/mL), streptomycin (100 μg/mL), L-glutamine (2 mM), and Geneticin (G-418, 0.2 mg/mL) at 37 °C in 5% CO2/95% air, as described earlier. For radioligand binding studies and measurement of adenylyl cyclase activity, crude membrane fractions were prepared from fresh or frozen cells with two different protocols described earlier. The determination of adenylyl cyclase activity followed the procedure described earlier. IC50 values for the inhibition of adenylyl cyclase stimulated (in the case of A2BAR) with 5 μM NECA were calculated with the Hill equation and converted to Ki values with the Cheng and Prusoff equation [32].
(§3) [^3H]CCPA (2-chloro-N^6-cyclopentylAdo) and [^3H]NECA (5′-N-ethylcarboxamidoAdo) were used as specific radioligands at A1ARand A2A / A3 ARs, respectively. Furthermore, the ability of the same compounds to inhibit NECA-stimulated adenylyl cyclase activity was evaluated at the A2BAR subtype. The results of the binding studies (A1, A2A, and A3 ARs) and functional data (A2BAR) are reported in Table 1 as Ki or IC50 values in nM, together with the data on the reference compounds 1–3.

[5] = molecular target: T3, human A1AR (Homo sapiens, UniProt P30542); test: Radioligand binding, displacement of [3H]CCPA at human A1AR in CHO cells; conditions: [3H]-CCPA displacement, geometric mean with 95% confidence limits, read-out: Ki A1
T3 construct: expressed in transfected cells; host or cells: CHO cells, crude membrane fractions
T3 sequence (P30542 1-326): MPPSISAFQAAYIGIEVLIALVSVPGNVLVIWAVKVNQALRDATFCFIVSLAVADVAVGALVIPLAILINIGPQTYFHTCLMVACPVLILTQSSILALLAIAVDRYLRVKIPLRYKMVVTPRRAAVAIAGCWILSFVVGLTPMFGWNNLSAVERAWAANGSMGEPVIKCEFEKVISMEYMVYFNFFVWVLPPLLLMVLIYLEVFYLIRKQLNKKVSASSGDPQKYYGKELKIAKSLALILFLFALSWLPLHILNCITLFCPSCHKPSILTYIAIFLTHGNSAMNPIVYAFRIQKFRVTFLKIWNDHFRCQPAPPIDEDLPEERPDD
Experimental: as §1, §2, §3

[6] = molecular target: T2, human A2BAR; test: Inhibition of NECA-stimulated adenylyl cyclase activity at human A2BAR; format: biochemical; conditions: inhibition of NECA-stimulated AC activity, CHO cells expressing human A2BAR; geometric mean with 95% confidence limits; read-out: IC50 A2B
Experimental: as §2, §3

Compound | Efficacy on catalepsy, preliminary studies ([1]; 5 mg/kg) | Effect on catalepsy induced by haloperidol [1] | Duration of anticataleptic effect [1] | Efficacy on catalepsy, preliminary studies ([1]; 1 and 3 mg/kg) | Ki [2] | IC50 [3] | Ki [4] | Ki [5] | IC50 [6]
CCn1c(Br)nc2c(N)nc(OCCc3ccccc3)nc21 [Compound 1, 8-bromo-9-ethyl-2-phenetoxyadenine] | fully effective | significantly antagonized catalepsy | 10 to 90 min | low efficacy on catalepsy | 1090 nM | 569 nM | – | – | –
CCOc1nc2c(N)nc(OCCc3ccccc3)nc2n1CC [Compound 4, 8-ethoxy-9-ethyl-2-phenethoxyadenine] | fully effective | significantly antagonized catalepsy; also recorded: longer duration and a strong intensity | 10 to 90 min | low efficacy on catalepsy | – | – | 359 nM | 86 nM | 6510 nM
CCn1c(I)nc2c(N)nc(OCCc3ccccc3)nc21 [Compound 5, 9-ethyl-8-iodo-2-phenethoxy-9H-purin-6-amine] | fully effective | significantly antagonized catalepsy | ≤ 60 min | low efficacy on catalepsy | – | – | 489 nM | 25 nM | 719 nM
